Measurements: paper PMC8507746, “The FHP01 DDX3X Helicase Inhibitor Exerts Potent Anti-Tumor Activity In Vivo in Breast Cancer Pre-Clinical Models” (Cancers, 2021)
Where “and” joins values, the source holds several entries; their conditions need not be identical. Identical values can stand only once. Like-named read-outs stand apart in the source and are kept apart here.

What was measured:
[1] = tested on: WNT signaling (TCF/LEF transcriptional activity); experiment: TCF/LEF luciferase reporter assay (WNT1/WNT3A) in MDA MB 231 cells; assay type: cell-based, human; conditions: MDA MB 231, 6 μM, 48 h
Experimental: MDA MB 231 cells were seeded at 3 × 10^4 cells/well density in 12-well plates, in triplicate, and transfected with 250 ng of the M50 Super 8× TOPFlash reporter vector (Addgene Plasmid #12456) and 1 μg of expression vectors inducing the WNT pathway (Wnt1-V5, Addgene plasmid #43807, and Wnt3A-V5, Addgene plasmid #43810). Eight hours after transfection, cells were treated with FHP01, XAV939 (Merck, Kenilworth, NJ, USA) or DMSO for indicated times prior to lysis in Passive Lysis Buffer (Promega, Madison, WI, USA). Luciferase activity in cellular lysates was assessed on a Glomax 20/20 luminometer (Promega) using the Luciferase Assay System (Promega). Results were normalized for GFP expression, upon transfection with GFP coding vector (1 μg). Representative results from 3 independent experiments are shown (n = 3). Error bars represent the Standard Error of the Mean. All samples were read at least in triplicate.

β-catenin = experiment: Western blot of β-catenin protein levels in MDA MB 231 cells; assay type: cell-based, human; conditions: MDA MB 231, 6 μM, 48 to 72 h
Experimental: (§1) Cells (1 × 10^5) were seeded in 6-well plates. After 24 h, cells were treated for indicated times with DMSO (vehicle) or FHP01 or XAV939 (Merck). After treatments, cells were washed with cold PBS and total protein extracts obtained by adding 80 µL of “RIPA Lysis buffer” (50 mM Tris-HCl pH 8.0, 150 mM NaCl, 0.5% Sodium deoxycholate, 0.1% SDS, 1% NP-40, 2 mM Orthovanadate, 2mM Sodium fluoride, 1mM Dithiothreitol and 1× protease inhibitors). After mechanicals detachment with cell scrapers, total lysates were collected in tubes, vortexed, and incubated for 15 min on ice. Tumors from mice were collected and disrupted by bead homogenization in Lysing Matrix D tubes using a FastPrep-24 5G homogenizer (MP Biomedicals, Solon, OH, USA) filled with “RIPA Lysis buffer” w:v. Next, samples were centrifuged for 10 min at 16,000× g, and supernatants were collected, representing total cell lysates.
(§2) Densitometric analysis of western blots was performed with NIH Image J (National Institutes of Health).

[2] = tested on: DDX3X and β-catenin in MDA MB 231 tumors; experiment: Western blot of DDX3X and β-catenin in tumors from treated mice; assay type: in vivo, athymic nude mice; conditions: 45 mg/kg i.p. three times per week for 4 weeks, individual tumors
Experimental: as §1, §2

[3] = Drug distribution to brain and liver in mice; assay type: in vivo, Swiss Albino mice; conditions: for Kp at 4 h / Kp at 8 h: male, Swiss Albino, mouse, ip, 10 mg/kg, ng/g normalized against ng/mL
Experimental: (§3) These studies were performed at the GVKBioscience Pvt. LTD Contract Research and Development Organization (CRDO). Animals were housed in cages with clean bedding. Adult Swiss Albino male mice (weight = 20–35 g) were maintained and monitored for good health in accordance with GVKBioscience Pvt. LTD Test Facility SOPs and at the discretion of the laboratory animal veterinarian. Certified rodent diet was provided, and water was available ad libitum. A periodic analysis of the water was performed, and the results have been archived at the Test Facility. Environmental controls for the animal room were set to maintain a temperature of 22 to 25 °C, humidity of 40–70% relative humidity, and a 12-h light/12-h dark cycle. Animals have been dosed i.v. with 1 mg/kg of FHP01 i.p. with 10 mg/kg of compound or p.o. through gastric gavage needle with 50 mg/kg of compound. Next, mice were anesthetized using gaseous anesthesia and blood samples were collected at each time point, from 3 mice of respective group. After collection of blood samples at each time point, the blood samples were stored on ice, prior to centrifugation. Blood samples were centrifuged at 1540 rcf (5000 rpm), 4 °C for 10 min to separate plasma. Plasma was transferred to pre-labeled micro-centrifuge tubes and promptly frozen at −80 °C until analysis. Samples have been identified by test item, group, animal number, and collection time point. A fit-for-purpose bioanalytical method was developed for analyzing the plasma samples. One set of nine standards have been run before the sample batch and used for plotting the calibration curve. Quality control (QC) samples have been prepared at a minimum of three concentrations, i.e., LQC (not more than 5 times to that of lowest standard concentration), HQC (not less than 75% of the highest standard concentration), and MQC (between the low and high concentration). Minimum of 6 QC samples (three concentrations in duplicate). One Set of QC (LQC, MQC, and HQC) samples have been analyzed before and after the sample batch.
For the analyses of drug distribution to brain and liver, whole body perfusion was performed using chilled saline in the defined group of animals followed by decapitation for tissue collection. The chest of the mice was exposed, the abdominal aorta was clamped, and both jugular veins were cut. Intra-cardial perfusion was performed through an insertion in the left ventricle. Mice brains and livers have been collected and immediately washed, dried, weighed and freeze at −80 °C until homogenization. The protocol has been reviewed and approved by the Institutional Animal Ethics Committee (IAEC).

[4] = Pharmacokinetic profiling, plasma concentration in mice; assay type: in vivo, Swiss Albino mice
Experimental: as §3

DDX3X = tested on: DDX3X; design: method as in earlier work; conditions: in vitro enzymatic activity; read-out: IC50, DDX3X helicase activity; cited from earlier work
[5] = brain/plasma, i.p. administration, read-out: BRAIN/PLASMA
[6] = liver/plasma, i.p. administration, read-out: LIVER/PLASMA

- tissue concentration ([3]; 24 h after administration): below the level of quantitation
- BRAIN/PLASMA ([3]; i.p. administration, 12h): BLQ
- LIVER/PLASMA ([3]; i.p. administration, 12h): BLQ
- Kp at 4 h [3, 5]: 0.5 ± 0.24
- Kp at 8 h [3, 5]: 3.14 ± 0.74
- Kp at 4 h [3, 6]: 3.75 ± 1.06
- Kp at 8 h [3, 6]: 6.32 ± 2.23
- plasma concentration profile ([4]; 1 mg/kg i.v.): rapidly decreasing plasma concentration
- plasma concentration profile ([4]; 10 mg/kg i.p.): high plasma concentration
- plasma concentration profile ([4]; 50 mg/kg p.o.): high plasma concentration
SMILES: CCCCc1cn(-c2ccc(NC(=O)Nc3ccccc3C(F)(F)F)cc2)nn1 [FHP01]
- WNT1- and WNT3A-dependent TCF/LEF transcriptional activity [1]: strong inhibition
- β-catenin protein levels (β-catenin): time-dependent reduction
- DDX3X : ERK2 in tumors ([2]; Ctrl 0.64, 1.00, 0.60): 0.01 (2×) and 0.13
- β-Catenin : ERK2 in tumors ([2]; Ctrl 0.64, 1.00, 0.89): 0.64 and 0.79 and 0.70
- IC50 (DDX3X): 300 nM
